The source of these data is ChEMBL document CHEMBL1909046, “DrugMatrix in vitro pharmacology data”.

The structures appear in SMILES notation.

One may read the IC50 as the point on the concentration scale where inhibition reaches its midpoint. The Ki is a dissociation constant, usually derived from enzyme kinetics or from competition with a known ligand.

One data set concerns the target D(1A) dopamine receptor (Homo sapiens, UniProt P21728). In words: DRUGMATRIX: Dopamine D1 radioligand binding (ligand: [3H] SCH-23390). It counts as cell membranes, CHO, Membrane. The following applies: cho; Not Active = under 50% inhibition at 10 µM.
In the next data set the target is T1, Glucocorticoid receptor (Homo sapiens, UniProt P04150). Also: in other assays of this panel Not Active means under 50% inhibition at 10 µM.
T1 sequence (P04150 whole entry): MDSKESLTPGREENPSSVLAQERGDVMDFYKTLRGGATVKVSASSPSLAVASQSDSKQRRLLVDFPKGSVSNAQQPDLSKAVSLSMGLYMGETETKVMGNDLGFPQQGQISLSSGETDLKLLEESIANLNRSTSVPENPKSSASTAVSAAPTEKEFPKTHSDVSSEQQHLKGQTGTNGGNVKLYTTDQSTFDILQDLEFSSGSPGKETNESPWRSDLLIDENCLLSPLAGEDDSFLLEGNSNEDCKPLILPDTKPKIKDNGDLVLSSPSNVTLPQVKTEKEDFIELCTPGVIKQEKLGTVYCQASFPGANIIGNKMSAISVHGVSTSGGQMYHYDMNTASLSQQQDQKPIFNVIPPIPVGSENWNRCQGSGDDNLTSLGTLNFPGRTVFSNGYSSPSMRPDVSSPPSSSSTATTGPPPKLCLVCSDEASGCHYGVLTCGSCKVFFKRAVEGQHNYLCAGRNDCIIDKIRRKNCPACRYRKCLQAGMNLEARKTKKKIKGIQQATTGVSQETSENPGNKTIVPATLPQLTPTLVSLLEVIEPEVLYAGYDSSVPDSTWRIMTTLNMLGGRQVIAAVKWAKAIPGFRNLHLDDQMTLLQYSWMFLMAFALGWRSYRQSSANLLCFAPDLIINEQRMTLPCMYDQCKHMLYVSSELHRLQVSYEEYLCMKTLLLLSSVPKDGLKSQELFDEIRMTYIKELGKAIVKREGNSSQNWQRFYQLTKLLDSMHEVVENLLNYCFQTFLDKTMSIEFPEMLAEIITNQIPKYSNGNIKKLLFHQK
The following applies: hela s3.

Data set [1] addresses Sodium-dependent noradrenaline transporter (Homo sapiens, UniProt P23975). The data set can be described thus: DRUGMATRIX: Norepinephrine Transporter radioligand binding (ligand: [125I] RTI-55). It counts as cell membranes, MDCK, Membrane. Conditions: Not Active = under 50% inhibition at 10 µM.
Data set [2] addresses T2, Alpha-1B adrenergic receptor (Rattus norvegicus, UniProt P15823).
T2 sequence (P15823 whole entry): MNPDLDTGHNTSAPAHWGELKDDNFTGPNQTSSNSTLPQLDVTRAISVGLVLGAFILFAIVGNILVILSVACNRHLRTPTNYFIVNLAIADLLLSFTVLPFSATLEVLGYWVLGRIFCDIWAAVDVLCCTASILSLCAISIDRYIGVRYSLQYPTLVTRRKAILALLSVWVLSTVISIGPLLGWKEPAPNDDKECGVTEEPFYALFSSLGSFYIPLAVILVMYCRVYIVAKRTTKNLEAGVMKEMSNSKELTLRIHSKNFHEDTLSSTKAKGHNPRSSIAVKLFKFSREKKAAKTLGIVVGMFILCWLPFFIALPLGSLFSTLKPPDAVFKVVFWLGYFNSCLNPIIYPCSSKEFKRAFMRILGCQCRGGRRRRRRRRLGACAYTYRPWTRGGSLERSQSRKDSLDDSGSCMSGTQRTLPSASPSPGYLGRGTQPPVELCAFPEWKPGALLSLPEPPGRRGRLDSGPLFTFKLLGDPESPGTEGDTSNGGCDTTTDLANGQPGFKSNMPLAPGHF
The data set can be described thus: DRUGMATRIX: Alpha-1B adrenergic receptor radioligand binding (ligand: prazosin). Format: cell membranes, Wistar, Liver, Membrane. Conditions: Not Active = under 50% inhibition at 10 µM.

The target in a further data set is T3, Estrogen receptor (Homo sapiens, UniProt P03372). Also: in other assays of this panel Not Active means under 50% inhibition at 10 µM.
T3 sequence (P03372 whole entry): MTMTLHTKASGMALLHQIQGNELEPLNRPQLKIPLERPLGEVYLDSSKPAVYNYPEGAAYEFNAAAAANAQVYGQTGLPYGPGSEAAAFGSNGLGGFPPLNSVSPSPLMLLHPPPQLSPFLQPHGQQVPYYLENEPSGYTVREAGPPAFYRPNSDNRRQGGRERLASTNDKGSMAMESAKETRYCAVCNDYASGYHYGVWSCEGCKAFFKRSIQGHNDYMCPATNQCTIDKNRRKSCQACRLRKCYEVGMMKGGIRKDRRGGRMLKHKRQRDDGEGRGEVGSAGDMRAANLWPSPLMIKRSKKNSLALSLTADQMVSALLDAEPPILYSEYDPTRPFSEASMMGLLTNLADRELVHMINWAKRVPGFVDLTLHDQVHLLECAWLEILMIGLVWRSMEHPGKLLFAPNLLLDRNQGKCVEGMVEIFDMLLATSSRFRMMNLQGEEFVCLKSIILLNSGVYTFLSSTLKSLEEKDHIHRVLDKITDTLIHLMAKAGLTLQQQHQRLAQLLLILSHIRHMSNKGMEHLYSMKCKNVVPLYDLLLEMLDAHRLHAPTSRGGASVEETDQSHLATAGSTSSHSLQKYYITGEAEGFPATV
Conditions: sf9.

The next data set has as its target Cytochrome P450 3A4 (Homo sapiens, UniProt P08684). The following applies: bti-tn-5b1-4. Also: in other assays of this panel Not Active means under 50% inhibition at 10 µM.
Another data set deals with Cytochrome P450 2C9 (Homo sapiens, UniProt P11712). Conditions: bti-tn-5b1-4.
The next data set has as its target Cytochrome P450 2D6 (Homo sapiens, UniProt P10635). The following applies: bti-tn-5b1-4. Also: in other assays of this panel Not Active means under 50% inhibition at 10 µM.

Chain of Cytochrome P450 3A4 (P08684 whole entry): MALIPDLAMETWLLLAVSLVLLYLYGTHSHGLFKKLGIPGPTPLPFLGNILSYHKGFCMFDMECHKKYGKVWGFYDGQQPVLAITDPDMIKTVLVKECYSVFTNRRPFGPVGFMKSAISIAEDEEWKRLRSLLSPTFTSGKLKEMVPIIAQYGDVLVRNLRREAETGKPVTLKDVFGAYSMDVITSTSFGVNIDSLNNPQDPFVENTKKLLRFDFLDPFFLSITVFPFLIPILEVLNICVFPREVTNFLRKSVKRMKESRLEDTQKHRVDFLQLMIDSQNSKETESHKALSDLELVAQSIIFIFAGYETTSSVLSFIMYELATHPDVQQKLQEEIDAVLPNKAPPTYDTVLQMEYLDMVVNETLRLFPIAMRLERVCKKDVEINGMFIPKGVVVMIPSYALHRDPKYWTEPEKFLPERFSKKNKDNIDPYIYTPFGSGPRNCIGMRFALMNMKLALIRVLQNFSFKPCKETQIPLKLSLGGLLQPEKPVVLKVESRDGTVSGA
Chain of D(1A) dopamine receptor (P21728 whole entry): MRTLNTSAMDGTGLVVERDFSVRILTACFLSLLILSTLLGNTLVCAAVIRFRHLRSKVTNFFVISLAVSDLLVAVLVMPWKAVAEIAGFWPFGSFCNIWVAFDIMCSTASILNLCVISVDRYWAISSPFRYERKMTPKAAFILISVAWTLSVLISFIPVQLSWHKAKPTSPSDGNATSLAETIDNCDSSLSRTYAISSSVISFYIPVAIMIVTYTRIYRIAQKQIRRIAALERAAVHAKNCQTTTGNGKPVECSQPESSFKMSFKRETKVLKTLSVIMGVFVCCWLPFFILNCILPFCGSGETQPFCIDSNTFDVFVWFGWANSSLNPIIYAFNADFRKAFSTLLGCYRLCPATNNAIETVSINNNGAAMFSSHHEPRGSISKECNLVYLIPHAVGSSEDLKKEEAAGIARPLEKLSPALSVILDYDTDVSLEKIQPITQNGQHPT
Chain of Cytochrome P450 2C9 (P11712 whole entry): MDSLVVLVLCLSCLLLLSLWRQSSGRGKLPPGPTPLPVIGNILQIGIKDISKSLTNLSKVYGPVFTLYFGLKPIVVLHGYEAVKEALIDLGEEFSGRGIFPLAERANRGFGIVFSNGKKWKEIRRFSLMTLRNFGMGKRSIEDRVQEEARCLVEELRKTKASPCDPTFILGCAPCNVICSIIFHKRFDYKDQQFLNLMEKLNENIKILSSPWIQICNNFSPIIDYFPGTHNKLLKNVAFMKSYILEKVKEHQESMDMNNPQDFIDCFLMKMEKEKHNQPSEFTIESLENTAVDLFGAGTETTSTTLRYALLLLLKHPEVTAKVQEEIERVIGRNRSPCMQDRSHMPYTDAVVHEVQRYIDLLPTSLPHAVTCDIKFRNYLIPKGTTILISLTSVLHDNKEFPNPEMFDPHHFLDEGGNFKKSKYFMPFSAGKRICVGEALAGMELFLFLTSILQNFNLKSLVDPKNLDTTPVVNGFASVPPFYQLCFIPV
Chain of Cytochrome P450 2D6 (P10635 whole entry): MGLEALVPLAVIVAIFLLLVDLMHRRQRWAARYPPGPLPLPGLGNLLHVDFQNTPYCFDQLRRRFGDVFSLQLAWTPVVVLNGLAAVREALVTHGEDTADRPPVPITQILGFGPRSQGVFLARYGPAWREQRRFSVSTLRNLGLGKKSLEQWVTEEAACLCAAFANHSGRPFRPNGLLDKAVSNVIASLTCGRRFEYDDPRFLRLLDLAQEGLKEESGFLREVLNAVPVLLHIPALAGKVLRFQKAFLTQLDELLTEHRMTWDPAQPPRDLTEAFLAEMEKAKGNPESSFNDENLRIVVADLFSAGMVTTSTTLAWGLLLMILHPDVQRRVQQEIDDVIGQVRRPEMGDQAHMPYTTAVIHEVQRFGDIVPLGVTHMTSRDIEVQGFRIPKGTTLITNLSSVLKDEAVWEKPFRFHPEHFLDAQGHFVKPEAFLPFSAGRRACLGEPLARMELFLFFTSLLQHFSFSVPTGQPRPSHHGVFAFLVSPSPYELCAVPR
Chain of Sodium-dependent noradrenaline transporter (P23975 whole entry): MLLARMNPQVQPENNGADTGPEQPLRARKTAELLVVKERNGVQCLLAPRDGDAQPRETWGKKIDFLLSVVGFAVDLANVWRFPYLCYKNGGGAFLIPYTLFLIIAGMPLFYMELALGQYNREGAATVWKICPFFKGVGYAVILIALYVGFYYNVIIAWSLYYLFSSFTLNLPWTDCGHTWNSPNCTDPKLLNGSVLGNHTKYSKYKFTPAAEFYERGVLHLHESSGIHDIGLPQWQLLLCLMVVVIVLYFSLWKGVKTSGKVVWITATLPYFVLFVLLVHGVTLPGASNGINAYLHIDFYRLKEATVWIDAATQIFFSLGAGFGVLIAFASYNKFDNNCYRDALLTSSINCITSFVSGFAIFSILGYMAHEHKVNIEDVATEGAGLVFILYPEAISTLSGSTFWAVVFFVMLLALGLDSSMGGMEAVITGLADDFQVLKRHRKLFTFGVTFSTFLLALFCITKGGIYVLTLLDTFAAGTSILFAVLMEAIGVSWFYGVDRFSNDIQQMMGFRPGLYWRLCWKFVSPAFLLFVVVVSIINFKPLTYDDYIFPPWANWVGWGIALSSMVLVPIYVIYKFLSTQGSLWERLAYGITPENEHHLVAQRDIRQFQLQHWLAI

Take `Nc1nc(N)c2nc(-c3ccccc3)c(N)nc2n1`: the IC50 entry (on D(1A) dopamine receptor; against Glucocorticoid receptor; in data set [1] (mdck); in data set [2]; at Estrogen receptor) was “Not Active” throughout.

With `CCN(CC)C(=S)SSC(=S)N(CC)CC`, the IC50 entry (against Cytochrome P450 3A4; against Glucocorticoid receptor; at Cytochrome P450 2C9; in data set [2]; against Cytochrome P450 2D6; against Estrogen receptor) was “Not Active” throughout. Also, the inhibitory constant (Ki) result on Cytochrome P450 3A4, at Cytochrome P450 2C9 and on Cytochrome P450 2D6 was “Not Active” throughout.

Regarding `CC(O)C(=O)O` (centres undefined) [LACTIC ACID], the half-maximal inhibitory concentration (IC50) result (against Cytochrome P450 3A4; on D(1A) dopamine receptor; on Cytochrome P450 2C9; in data set [1] (mdck); in data set [2]; against Cytochrome P450 2D6) was “Not Active” throughout. The IC50 result against Estrogen receptor was “Not Active”. Moreover, the Ki entry on Cytochrome P450 3A4, on Cytochrome P450 2C9 and on Cytochrome P450 2D6 was “Not Active” each time.

Take `CO[C@@H]1[C@@H](OC)[C@H](C)[C@@](O)(CC(=O)O)O[C@H]1[C@H](C)[C@H]1O[C@@]2(CC[C@@](C)([C@H]3CC[C@@](C)([C@@H]4O[C@@H]([C@H]5O[C@](C)(O)[C@H](C)C[C@@H]5C)C[C@@H]4O[C@@H]4C[C@H](OC)[C@@H](OC)[C@H](C)O4)O3)O2)C[C@H](O)[C@H]1C.N` [MADURAMICIN]: the half-inhibitory concentration (IC50) result (against Cytochrome P450 3A4; against Glucocorticoid receptor; against Cytochrome P450 2C9; in data set [1] (mdck); on Cytochrome P450 2D6; against Estrogen receptor) was “Not Active” each time. Besides, the Ki result at Cytochrome P450 3A4, on Cytochrome P450 2C9 and on Cytochrome P450 2D6 was “Not Active” each time.

As to `OC[C@@H](O)[C@@H](O)[C@H](O)[C@H](O)CO` [MANNITOL], the half-maximal inhibitory concentration (IC50) entry (against Cytochrome P450 3A4; on D(1A) dopamine receptor; on Cytochrome P450 2C9; in data set [1] (mdck); in data set [2]; at Cytochrome P450 2D6) was “Not Active” throughout. Also, the IC50 entry against Estrogen receptor is reported as “Not Active”. The Ki entry at Cytochrome P450 3A4, on Cytochrome P450 2C9 and on Cytochrome P450 2D6 was “Not Active” in each case.

For `CNCCCC12CCC(c3ccccc31)c1ccccc12` [MAPROTILINE], the IC50 entry at Glucocorticoid receptor and on Estrogen receptor was “Not Active” in each case.

For the compound `CC(=O)O[C@]1(C(C)=O)CC[C@H]2[C@@H]3C[C@H](C)C4=CC(=O)CC[C@]4(C)[C@H]3CC[C@@]21C` [MEDROXYPROGESTERONE ACETATE], the half-maximal inhibitory concentration (IC50) entry (against Cytochrome P450 3A4; at D(1A) dopamine receptor; on Cytochrome P450 2C9; in data set [1] (mdck); in data set [2]; on Cytochrome P450 2D6) was “Not Active” throughout. The half-maximal inhibitory concentration (IC50) result against Estrogen receptor is recorded as “Not Active”. Besides, the Ki entry at Cytochrome P450 3A4, on Cytochrome P450 2C9 and on Cytochrome P450 2D6 was “Not Active” each time.

Consider `CN1C[C@H](CNC(=O)OCc2ccccc2)C[C@@H]2c3cccc4c3c(cn4C)C[C@H]21` [METERGOLINE], for which the IC50 result against Cytochrome P450 3A4 was “Not Active”; against Glucocorticoid receptor, “Not Active”; against Cytochrome P450 2C9, “Not Active”; in data set [2] (read-out: IC50) it was 0.262 µM; against Estrogen receptor, “Not Active”. In addition, the results for the inhibitory constant (Ki) entry (at Cytochrome P450 3A4; at Cytochrome P450 2C9; in data set [2] (read-out: Ki)) were “Not Active”, “Not Active” and 0.145 µM, respectively.

Consider `C[N+]1(C)[C@@H]2C[C@@H](OC(=O)[C@H](CO)c3ccccc3)C[C@H]1[C@@H]1O[C@@H]12.[Br-]` [METHSCOPOLAMINE BROMIDE], for which the IC50 entry (on Cytochrome P450 3A4; on D(1A) dopamine receptor; at Glucocorticoid receptor; in data set [2]; on Cytochrome P450 2D6; against Estrogen receptor) was “Not Active” each time. Moreover, the Ki result on Cytochrome P450 3A4 and at Cytochrome P450 2D6 was “Not Active” in each case.

As for `CCN(CC)CCNC(=O)c1cc(Cl)c(N)cc1OC` [METOCLOPRAMIDE], the half-maximal inhibitory concentration (IC50) entry (against Cytochrome P450 3A4; on D(1A) dopamine receptor; on Cytochrome P450 2C9; in data set [1] (mdck); in data set [2]; against Estrogen receptor) was “Not Active” in each case. Also, the Ki entry at Cytochrome P450 3A4 and on Cytochrome P450 2C9 was “Not Active” throughout.

Regarding `Cc1[nH]c(=O)c(C#N)cc1-c1ccncc1` [MILRINONE], the 50% inhibitory concentration (IC50) result (on Cytochrome P450 3A4; at D(1A) dopamine receptor; against Cytochrome P450 2C9; in data set [1] (mdck); in data set [2]; against Cytochrome P450 2D6) was “Not Active” throughout. In addition, the IC50 result against Estrogen receptor is reported as “Not Active”. Further, the Ki entry on Cytochrome P450 3A4, at Cytochrome P450 2C9 and on Cytochrome P450 2D6 was “Not Active” in each case.

Turning to `Cc1cc2c(s1)Nc1ccccc1N=C2N1CCN(C)CC1` [OLANZAPINE], the IC50 result (against Cytochrome P450 3A4; against Glucocorticoid receptor; on Cytochrome P450 2C9; in data set [1] (mdck); on Cytochrome P450 2D6; at Estrogen receptor) was “Not Active” in each case. Moreover, the Ki entry on Cytochrome P450 3A4, at Cytochrome P450 2C9 and on Cytochrome P450 2D6 was “Not Active” throughout.

Turning to `Oc1ccc(/C=C/c2cc(O)cc(O)c2)cc1` [RESVERATROL], the 50% inhibitory concentration (IC50) entry at D(1A) dopamine receptor is “Not Active”; in data set [1] (read-out: IC50) it was 2.31 µM; in data set [2] it was “Not Active”; against Cytochrome P450 2D6 it was “Not Active”; against Estrogen receptor, “Not Active”. The inhibitory constant (Ki) in data set [1] (read-out: Ki) is 2.29 µM; on Cytochrome P450 2D6, “Not Active”.

With `CCC(C)(C)C(=O)O[C@H]1C[C@@H](C)C=C2C=C[C@H](C)[C@H](CC[C@@H]3C[C@@H](O)CC(=O)O3)[C@H]21` [SIMVASTATIN], the IC50 result (at D(1A) dopamine receptor; against Glucocorticoid receptor; in data set [2]; against Estrogen receptor) was “Not Active” throughout.

`Cc1nnc(NS(=O)(=O)c2ccc(N)cc2)s1` [SULFAMETHIZOLE]: the IC50 entry (at Cytochrome P450 3A4; at D(1A) dopamine receptor; at Cytochrome P450 2C9; in data set [1] (mdck); in data set [2]; at Cytochrome P450 2D6) was “Not Active” throughout. Further, the IC50 entry against Estrogen receptor is “Not Active”. In addition, the inhibitory constant (Ki) result at Cytochrome P450 3A4, on Cytochrome P450 2C9 and at Cytochrome P450 2D6 was “Not Active” in each case.

As to `Cc1ccc(S(=O)(=O)NC(=O)NN2CCCCCC2)cc1` [TOLAZAMIDE], the half-maximal inhibitory concentration (IC50) entry (at D(1A) dopamine receptor; against Glucocorticoid receptor; in data set [1] (mdck); in data set [2]; on Estrogen receptor) was “Not Active” throughout.
